Measurements reported in patent US20200024278A1, “COMPOSITION COMPRISING ANTIBIOTIC COMPOUND AND AN HETEROCYCLIC COMPOUND AND THEIR USE IN PREVENTING OR TREATING BACTERIAL INFECTIONS” (MUTABILIS, priority 2016, published 2020).

How the values were obtained:
Test in all cases: MIC, broth microdilution (CLSI), substance alone or ATB combined with compound at 4 or 8 μg/mL
ECL P99 = format: cell-based, E. cloacae; conditions: ECL P99
Method in brief: (§1)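 Growth inhibition endpoint, read visually after 16-20 h at 35° C in ambient air. Cation-adjusted Mueller-Hinton broth, inoculum 5·10^5 CFU/mL, CLSI M7-A7 protocol.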

PAE 105250 = format: cell-based, P. aeruginosa; conditions: PAE 105250
Method in brief: as §1

PAE UFR48 = format: cell-based, P. aeruginosa; conditions: PAE UFR48
Method in brief: as §1

PAE UFR90 = format: cell-based, P. aeruginosa; conditions: PAE UFR90
Method in brief: as §1

SAU 29213 = format: cell-based, S. aureus; conditions: SAU 29213
Method in brief: as §1

SPN 49619 = format: cell-based, S. pneumoniae; conditions: SPN 49619
Method in brief: as §1

CN(C)c1cc(NC(=O)CNC(C)(C)C)c(O)c2c1C[C@H]1C[C@H]3[C@H](N(C)C)C(O)=C(C(N)=O)C(=O)[C@@]3(O)C(O)=C1C2=O [TGC]
MIC ATB combined with Example 11 @8 μg/ml (ECL P99; with Example 11 at 8 μg/ml): <0.031 µg/mL
MIC ATB combined with Example 12 @8 μg/ml (ECL P99; with Example 12 at 8 μg/ml): <0.031 µg/mL
MIC ATB combined with Example 13 @8 μg/ml (ECL P99; with Example 13 at 8 μg/ml): 0.25 µg/mL
MIC ATB combined with Example 14 @8 μg/ml (ECL P99; with Example 14 at 8 μg/ml): <0.031 µg/mL
MIC ATB combined with Example 15 @4 μgml (ECL P99; with Example 15 at 4 μg/ml): <0.031 µg/mL
MIC ATB combined with Example 16 @4 μg/ml (ECL P99; with Example 16 at 4 μg/ml): <0.031 µg/mL
MIC ATB alone (PAE 105250; antibiotic alone): 8 µg/mL
MIC ATB combined with Example 1 @8 μg/ml (PAE 105250; with Example 1 @8 μg/ml): 0.5 µg/mL
MIC ATB combined with Example 1 @8 μg/ml (PAE 105250; with Example 1 at 8 μg/ml): 0.5 µg/mL
MIC ATB combined with Example 7 @8 μgml (PAE 105250; with Example 7 at 8 μg/ml): 32 µg/mL
MIC ATB combined with Example 9 @4 μg/ml (PAE 105250; with Example 9 @4 μg/ml): 8 µg/mL
MIC ATB combined with Example 9 @4 μg/ml (PAE 105250; with Example 9 at 4 μg/ml): 8 µg/mL
MIC ATB combined with Example 11 @8 μg/ml (PAE 105250; with Example 11 at 8 μg/ml): 8 µg/mL
MIC ATB combined with Example 12 @8 μg/ml (PAE 105250; with Example 12 at 8 μg/ml): 8 µg/mL
MIC ATB combined with Example 13 @8 μg/ml (PAE 105250; with Example 13 at 8 μg/ml): 8 µg/mL
MIC ATB combined with Example 14 @8 μg/ml (PAE 105250; with Example 14 at 8 μg/ml): 8 µg/mL
MIC ATB combined with Example 15 @4 μgml (PAE 105250; with Example 15 at 4 μg/ml): 8 µg/mL
MIC ATB combined with Example 16 @4 μg/ml (PAE 105250; with Example 16 at 4 μg/ml): 8 µg/mL
MIC ATB alone (PAE UFR48; antibiotic alone): 32 µg/mL
MIC ATB combined with Example 1 @8 μg/ml (PAE UFR48; with Example 1 @8 μg/ml): <0.031 µg/mL
MIC ATB combined with Example 1 @8 μg/ml (PAE UFR48; with Example 1 at 8 μg/ml): <0.031 µg/mL
MIC ATB combined with Example 7 @8 μgml (PAE UFR48; with Example 7 at 8 μg/ml): >32 µg/mL
MIC ATB combined with Example 9 @4 μg/ml (PAE UFR48; with Example 9 @4 μg/ml): 32 µg/mL
MIC ATB combined with Example 9 @4 μg/ml (PAE UFR48; with Example 9 at 4 μg/ml): 32 µg/mL
MIC ATB combined with Example 11 @8 μg/ml (PAE UFR48; with Example 11 at 8 μg/ml): 32 µg/mL
MIC ATB combined with Example 12 @8 μg/ml (PAE UFR48; with Example 12 at 8 μg/ml): 32 µg/mL
MIC ATB combined with Example 13 @8 μg/ml (PAE UFR48; with Example 13 at 8 μg/ml): 32 µg/mL
MIC ATB combined with Example 14 @8 μg/ml (PAE UFR48; with Example 14 at 8 μg/ml): 32 µg/mL
MIC ATB combined with Example 15 @4 μgml (PAE UFR48; with Example 15 at 4 μg/ml): 32 µg/mL
MIC ATB combined with Example 16 @4 μg/ml (PAE UFR48; with Example 16 at 4 μg/ml): 32 µg/mL
MIC ATB alone (PAE UFR90; antibiotic alone): 16 µg/mL
MIC ATB combined with Example 1 @8 μg/ml (PAE UFR90; with Example 1 @8 μg/ml): <0.031 µg/mL
MIC ATB combined with Example 1 @8 μg/ml (PAE UFR90; with Example 1 at 8 μg/ml): <0.031 µg/mL
MIC ATB combined with Example 7 @8 μgml (PAE UFR90; with Example 7 at 8 μg/ml): 32 µg/mL
MIC ATB combined with Example 9 @4 μg/ml (PAE UFR90; with Example 9 @4 μg/ml): 16 µg/mL
MIC ATB combined with Example 9 @4 μg/ml (PAE UFR90; with Example 9 at 4 μg/ml): 16 µg/mL
MIC ATB combined with Example 11 @8 μg/ml (PAE UFR90; with Example 11 at 8 μg/ml): 16 µg/mL
MIC ATB combined with Example 12 @8 μg/ml (PAE UFR90; with Example 12 at 8 μg/ml): 16 µg/mL
MIC ATB combined with Example 13 @8 μg/ml (PAE UFR90; with Example 13 at 8 μg/ml): 16 µg/mL
MIC ATB combined with Example 14 @8 μg/ml (PAE UFR90; with Example 14 at 8 μg/ml): 16 µg/mL
MIC ATB combined with Example 15 @4 μgml (PAE UFR90; with Example 15 at 4 μg/ml): 16 µg/mL
MIC ATB combined with Example 16 @4 μg/ml (PAE UFR90; with Example 16 at 4 μg/ml): 16 µg/mL
MIC ATB alone (SAU 29213; antibiotic alone): 0.25 µg/mL
MIC ATB combined with Example 1 @8 μg/ml (SAU 29213; with Example 1 @8 μg/ml): 0.125 µg/mL
MIC ATB combined with Example 1 @8 μg/ml (SAU 29213; with Example 1 at 8 μg/ml): 0.125 µg/mL
MIC ATB combined with Example 7 @8 μgml (SAU 29213; with Example 7 at 8 μg/ml): 0.25 µg/mL
MIC ATB combined with Example 9 @4 μg/ml (SAU 29213; with Example 9 @4 μg/ml): <0.031 µg/mL
MIC ATB combined with Example 9 @4 μg/ml (SAU 29213; with Example 9 at 4 μg/ml): <0.031 µg/mL
MIC ATB combined with Example 11 @8 μg/ml (SAU 29213; with Example 11 at 8 μg/ml): <=0.031 μg/mL
MIC ATB combined with Example 12 @8 μg/ml (SAU 29213; with Example 12 at 8 μg/ml): <0.031 µg/mL
MIC ATB combined with Example 13 @8 μg/ml (SAU 29213; with Example 13 at 8 μg/ml): 0.063 µg/mL
MIC ATB combined with Example 14 @8 μg/ml (SAU 29213; with Example 14 at 8 μg/ml): <0.031 µg/mL
MIC ATB combined with Example 15 @4 μgml (SAU 29213; with Example 15 at 4 μg/ml): <0.031 µg/mL
MIC ATB combined with Example 16 @4 μg/ml (SAU 29213; with Example 16 at 4 μg/ml): <0.031 µg/mL
MIC ATB alone (SPN 49619; antibiotic alone): 0.125 µg/mL
MIC ATB combined with Example 1 @8 μg/ml (SPN 49619; with Example 1 @8 μg/ml): 0.125 µg/mL
MIC ATB combined with Example 1 @8 μg/ml (SPN 49619; with Example 1 at 8 μg/ml): 0.125 µg/mL
MIC ATB combined with Example 7 @8 μgml (SPN 49619; with Example 7 at 8 μg/ml): 0.063 µg/mL
MIC ATB combined with Example 9 @4 μg/ml (SPN 49619; with Example 9 @4 μg/ml): <0.031 µg/mL
MIC ATB combined with Example 9 @4 μg/ml (SPN 49619; with Example 9 at 4 μg/ml): <0.031 µg/mL
MIC ATB combined with Example 11 @8 μg/ml (SPN 49619; with Example 11 at 8 μg/ml): <=0.031 μg/mL
MIC ATB combined with Example 12 @8 μg/ml (SPN 49619; with Example 12 at 8 μg/ml): <0.031 µg/mL
MIC ATB combined with Example 13 @8 μg/ml (SPN 49619; with Example 13 at 8 μg/ml): 0.063 µg/mL
MIC ATB combined with Example 14 @8 μg/ml (SPN 49619; with Example 14 at 8 μg/ml): <0.031 µg/mL
MIC ATB combined with Example 15 @4 μgml (SPN 49619; with Example 15 at 4 μg/ml): <=0.031 μg/mL
MIC ATB combined with Example 16 @4 μg/ml (SPN 49619; with Example 16 at 4 μg/ml): <0.031 µg/mL
